Test system: entire human genome (gene expression profile)
Experiment: Agilent whole human genome array, skin fibroblasts AG07999, antioxidant with or without UV
Type: cell-based
Protocol: Cell cultures: A human skin fibroblast cell culture was obtained through the Coriell Cell Repository from the National Institute on Aging Cell Repository. […] Culture media: Cells were grown in Minimal Essential Medium supplemented with 10% fetal bovine serum, 2 mM L-glutamine, 2 mM Glutamax I. […] All cultures were incubated at 37° C. with 5% CO2 in a humidified chamber. […] On Day 5 after 24 hours of exposure to test conditions, the cells were isolated and the RNA isolated using the RT^2q PCR-grade RNA isolation kit (Superarray Bioscience Corporation). […] Analysis of Agilent Whole Human Genome Arrays: RNA taken from both samples was sent to Cogenics, Inc. Morrisville, N.C. Cogenics, Inc. is a leading, state-of-the-art, microarray service provider that facilitates and accelerates transcriptome profiling and gene discovery processes for industrial and academic researchers. Cogenics' procedure for processing samples is as follows: RNA samples are received and analyzed by Cogenics, Inc. using rigorous standardized procedures that are designed to ensure quality and chain of custody. Each sample undergoes a thorough quality analysis using an Agilent Bioanalyzer microfluidics device, and is precisely quantified using a Nanodrop-1000 spectro-photometer. When the Agilent Oligonucleotide Microarray Platform is utilized, samples are fluorescently labeled using the Agilent Low-Input Linear Amplification Kit. Upon completion of this process, the labeled cRNA products are assessed using the same processes described above. These labeled samples are then fragmented and hybridized to oligonucleotide microarrays. The microarrays are washed and then scanned using an Agilent DNA Microarray Scanner with Sure Scan technology. Data is extracted from the images produced by the scanner using Agilent's Feature Extraction software. At this point, the scanned image is visually inspected for defects, and the extracted data is statistically analyzed to ensure quality of the assay. Extracted data and images can be loaded into Rosetta Resolver Gene Expression Data Analysis System for in-depth analysis, both from a quality standpoint, as well as to develop biological understanding. […] A table was generated and provided as a tab-delimited text file. This file will contain the log ratio, fold-change, log ratio p-value, etc. for every transcript measured by the microarray. Using Rosetta Resolver, a single ratio comparison was compiled based on the results of the two fluorophore reversal hybridization performed in the context of this project. The ratios were calculated such that the Tx sample was in the numerator and the UnTx sample was in the denominator. A table was generated, saved as tab-delimited text files, and is provided on the DVD that accompanied this report in the “Objective—1” subdirectory or the “Data_Analysis” directory. These files contain the log ratio, fold-change, log ratio p-value, etc. for every transcript present on the microarray. […] A table for will be generated and provided as a tab-delimited text file. The file will contain the log ratio, fold-change, log ratio p-value, etc. for only the differentially expressed transcripts within the context of the comparison. […] These criteria were applied to the comparison made in Objective 1. A table was generated, saved as tab-delimited text files, and is provided on the DVD that accompanied this report in the “Objective—1” subdirectory or the “Data_Analysis” directory. […] Cell cultures: A human skin fibroblast cell culture (or cultures) will be obtained through the Coriell Cell Repository from the National Institute on Aging Cell Repository. […] Culture media: Cells will be grown in Minimal Essential Medium supplemented with 10% fetal bovine serum, 2 mM L-glutamine, 2 mM Glutamax I.

SMILES: COC1=C(OC)C(=O)C(CCCCCCCCCCO)=C(C)C1=O [Idebenone, 6-(10-hydroxydecyl)-2,3-dimethoxy-5-methyl-1,4-benzoquin-one]
- TFAM Expression (Idebenone + UVB): 1.1
- TPO Expression (Idebenone + UVB): 1.0
- TROAP Expression (Idebenone + UVB): −1.1
- TTN Expression (Idebenone + UVB): 1.3
- TXNRD2 Expression (Idebenone + UVB): −1.6
- UNR Expression (Idebenone + UVB): 1.4
- VEGFA Expression (Idebenone + UVB): −1.3
- AKT1 Expression (Idebenone Alone): 1.0
- ALOX12 Expression (Idebenone Alone): −1.1
- APOE Expression (Idebenone Alone): 1.0
- ARG2 Expression (Idebenone Alone): 1.0
- ATOX1 Expression (Idebenone Alone): −1.0
- CAMK1 Expression (Idebenone Alone): −1.1
- CAT Expression (Idebenone Alone): 1.2
- CCNA1 Expression (Idebenone Alone): 1.0
- CCS Expression (Idebenone Alone): −1.0
- CDKN1A Expression (Idebenone Alone): 1.4
- CYBA Expression (Idebenone Alone): 1.0
- CYGB Expression (Idebenone Alone): 1.2
- DDAH2 Expression (Idebenone Alone): 1.1
- DLG4 Expression (Idebenone Alone): 1.0
- DNCL1 Expression (Idebenone Alone): 1.0
- DND1 Expression (Idebenone Alone): 1.0
- DUOX1 Expression (Idebenone Alone): 1.0
- DUOX2 Expression (Idebenone Alone): −1.1
- DUSP1 Expression (Idebenone Alone): −1.4
- EGFR Expression (Idebenone Alone): 1.8
- EPX Expression (Idebenone Alone): −1.6
- FOXM1 Expression (Idebenone Alone): −1.0
- GCH1 Expression (Idebenone Alone): 1.0
- GCHFR Expression (Idebenone Alone): 1.0
- GLA Expression (Idebenone Alone): −1.2
- GLRX2 Expression (Idebenone Alone): 1.1
- GPR156 Expression (Idebenone Alone): 1.3
- GPX1 Expression (Idebenone Alone): 1.0
- GPX2 Expression (Idebenone Alone): 1.0
- GPX3 Expression (Idebenone Alone): 1.0
- GPX4 Expression (Idebenone Alone): −1.3
- GPX5 Expression (Idebenone Alone): 1.0
- GRIN2D Expression (Idebenone Alone): 1.0
- GSS Expression (Idebenone Alone): −1.1
- HSP90AB1 Expression (Idebenone Alone): 1.0
- IL8 Expression (Idebenone Alone): −1.2
- IL10 Expression (Idebenone Alone): 1.1
- INS Expression (Idebenone Alone): −1.0
- JUN Expression (Idebenone Alone): 1.0
- KRT1 Expression (Idebenone Alone): 1.1
- LPO Expression (Idebenone Alone): 1.1
- MBL2 Expression (Idebenone Alone): 1.0
- MPO Expression (Idebenone Alone): 1.0
- MSRA Expression (Idebenone Alone): 1.0
- MT3 Expression (Idebenone Alone): −1.1
- MTL5 Expression (Idebenone Alone): 1.5
- MYB Expression (Idebenone Alone): 1.0
- NCF1 Expression (Idebenone Alone): −1.7
- NCF2 Expression (Idebenone Alone): 1.1
- NME5 Expression (Idebenone Alone): 1.0
- NOS1 Expression (Idebenone Alone): 1.9
- NOS2A Expression (Idebenone Alone): 1.0
- NOS3 Expression (Idebenone Alone): 1.0
- NOSIP Expression (Idebenone Alone): 1.0
- NOSTRIN Expression (Idebenone Alone): 1.1
- NOX5 Expression (Idebenone Alone): 1.0
- NQO1 Expression (Idebenone Alone): −1.3
- NRF1 Expression (Idebenone Alone): −1.0
- NUDT1 Expression (Idebenone Alone): 1.3
- OXR1 Expression (Idebenone Alone): 1.0
- PGC Expression (Idebenone Alone): −1.2
- PKAR1B Expression (Idebenone Alone): 1.1
- PNKP Expression (Idebenone Alone): 1.0
- PP3CA Expression (Idebenone Alone): 1.0
- PRDX2 Expression (Idebenone Alone): −1.3
- PRDX6 Expression (Idebenone Alone): −1.1
- PREX1 Expression (Idebenone Alone): 1.0
- PRG3 Expression (Idebenone Alone): 1.0
- PRKCA Expression (Idebenone Alone): 1.0
- PRNP Expression (Idebenone Alone): −1.0
- RNF7 Expression (Idebenone Alone): 1.2
- SCARA3 Expression (Idebenone Alone): 1.1
- SCRT2 Expression (Idebenone Alone): 1.4
- SELS Expression (Idebenone Alone): 1.0
- SEPP1 Expression (Idebenone Alone): 1.2
- SGK2 Expression (Idebenone Alone): 1.2
- SIRT2 Expression (Idebenone Alone): −1.0
- SOD1 Expression (Idebenone Alone): −1.0
- SOD2 Expression (Idebenone Alone): −1.2
- SOD3 Expression (Idebenone Alone): −1.3
- SRXN1 Expression (Idebenone Alone): 1.5
- TFAM Expression (Idebenone Alone): −1.2
- TPO Expression (Idebenone Alone): 1.0
- TROAP Expression (Idebenone Alone): −1.0
- TTN Expression (Idebenone Alone): 1.0
- TXNRD2 Expression (Idebenone Alone): −1.3
- UNR Expression (Idebenone Alone): 1.0
- VEGFA Expression (Idebenone Alone): −1.7
- POT1 Expression (Human Genome Expression Values) (agent + UVB): 1.2
- RAP1 Expression (Human Genome Expression Values) (agent + UVB): −1.1
- TERT Expression (Human Genome Expression Values) (agent + UVB): −1.3
- TIN2 Expression (Human Genome Expression Values) (agent + UVB): 1.1
- TNKS2 Expression (Human Genome Expression Values) (agent + UVB): 1.1
- TNKS Expression (Human Genome Expression Values) (agent + UVB): 1.3
- TPP1 Expression (Human Genome Expression Values) (agent + UVB): 1.0
- TRF1 Expression (Human Genome Expression Values) (agent + UVB): 1.3
- TRF2 Expression (Human Genome Expression Values) (agent + UVB): −1.1
- POT1 Expression (Human Genome Expression Values) (agent Alone): −1.0
- RAP1 Expression (Human Genome Expression Values) (agent Alone): −1.1
- TERT Expression (Human Genome Expression Values) (agent Alone): 1.1
- TIN2 Expression (Human Genome Expression Values) (agent Alone): 1.1
- TNKS2 Expression (Human Genome Expression Values) (agent Alone): −1.0
- TNKS Expression (Human Genome Expression Values) (agent Alone): 1.1
- TPP1 Expression (Human Genome Expression Values) (agent Alone): −1.1
- TRF1 Expression (Human Genome Expression Values) (agent Alone): −1.0
- TRF2 Expression (Human Genome Expression Values) (agent Alone): 1.0

— patent publication US20140079836A1, “METHODS AND COMPOSITIONS FOR ALTERING HEALTH, WELLBEING, AND LIFESPAN” (LifeSpan Extension, LLC, priority 2008, published 2014)
